Measurements as given in PMC9448818 (Translational Psychiatry, 2022).
Values joined by “and” are separate entries in the source; they are usually repeats but may differ in a detail not shown here. Equal entries are not always repeated.

Columns and labels:
[1] = Dose-adjusted serum concentrations of drug and metabolite (LC-MS/MS) by CYP2C19 and CYP2D6 metabolizer group; type: in vivo, human; conditions: for B, ARI concentrations in serum, CYP2D6 IM+PM / B, DHA concentrations in serum, CYP2D6 IM+PM / B, ESCadj concentrations in serum, CYP2C19 RM+UM / B, ESCadj concentrations in serum, CYP2D6 IM+PM / B, ESCadj concentrations in serum, CYP2C19 IM+PM / B, S-DCTadj concentrations in serum, CYP2C19 IM+PM / B, S-DCTadj concentrations in serum, CYP2C19 RM+UM / B, S-DCTadj concentrations in serum, CYP2D6 IM+PM: vs NM
Description: (§1) The 16-week study protocol consisted of two phases following screening and baseline visits. […] Blood samples were collected on Weeks 2, 10, and 16 to measure medication levels and on Week 4 for pharmacogenetic analyses. The methods used for the quantification of serum levels of drug and metabolite concentrations is described in the Supplementary Methods.
Serum concentrations were adjusted for dosage (i.e., ng/mL/mg). Sampling time (i.e., hours since the last dose) was entered as a covariate in the regression models to account for when the medication was taken.
The CYP2C19 metabolizer group was not included as a fixed effect covariate, as CYP2C19 is not known to be involved in the metabolism of ARI. […]
Collection of blood samples and quantification of serum drug and metabolite concentrations Participants self-reported the time at which the last dosage of the study medication was taken during the collection of the blood samples. […]
major metabolites, (S-DCT) and (DHA), were performed at the CAMH Clinical Laboratory using LC-MS/MS technology. Briefly, a mix of deuterated internal standards (Cerilliant) was added to 100 µL of each serum specimen, calibrator (Cerilliant) and quality control (MassCheck Antidepressants/Neuroleptics, Level 1 and Level 2). Proteins were precipitated with 300 µL of 9:1 Acetonitrile:Methanol (Sigma-Aldrich) followed by 5 min centrifugation at 9000 rpm. 25 µL of each supernatant was diluted with 200 µL of 0.1% Formic acid (Sigma-Aldrich) and then analyzed on the LC-MS/MS platform consisting of ThermoFisher TSQ Quantum Ultra mass spectrometer coupled with ThermoFisher Surveyor LC pump and HTC PAL autosampler fitted with a Kinetex F5 2.6 µm, 100 x 2.1 mm column (Phenomenex). Six minute gradient elution with 0.1% Formic Acid (mobile phase A) and Acetonitrile (mobile phase B) was applied. Collision energies ranged from 14 to […]
calibration curve ranging from 10 to 1000 ng/mL for each analyte.
Vendor nominal means for quality controls were used to assess the assay accuracy for each of the four analytes […]
precision was considered acceptable assay performance.
Data was analyzed with ThemoFisher XCalibur software.

[2] = tested on: patients with MDD; experiment: MADRS response, remission and symptom improvement (CAN-BIND-1 trial); type: in vivo, human; parameters: key to Estimate for Week, percentage symptom improvement (MADRS), mixed effects model / Estimate for CYP2C19 IM+PM, percentage symptom improvement (MADRS), mixed effects model / Estimate for CYP2C19 RM+UM, percentage symptom improvement (MADRS), mixed effects model / Estimate for CYP2D6 IM+PM, percentage symptom improvement (MADRS), mixed effects model: % points of improvement = (baseline MADRS − MADRS)/baseline; conditions: for share of the effect of CYP2C19 IM+PM phenotype on symptom improvement mediated by ESCadj serum concentrations: ESC-Only, bootstrap mediation analysis; for cumulative difference in symptom improvement from baseline between CYP2C19 NMs and IMs: at trial end (Week 16)
Procedure: as §1
Depressive symptoms were assessed using MADRS every 2 weeks from Week 0 to 16. The primary outcomes for response were: (1) response status (responder versus non-responder) on the last visit of Phases I and II (i.e., Week 8 and 16), and (2) the percentage of symptom improvement across visits during Phases I and II. Remission status (remitter versus non-remitter) at the end of Phases I and II was a secondary outcome for a response. These response outcomes are described in the Supplementary Methods.
(§2) We assessed the dichotomous measures of response (responder vs. non-responder and remitter vs. non-remitter) and side effects (present vs. absent) for the last timepoint in Phases I and II using logistic regression models with total MADRS score at baseline included as a covariate. Given the availability of biweekly MADRS scores and multiple time points for TSES, continuous measures of response (percentage of symptom improvement) and side effects (intensity of each category of side effects) were assessed using linear mixed-effects models that included interactions of CYP2C19 and CYP2D6 metabolizer groups with timepoint, and recruitment site and individual as random effects variables.
(§3) Using Spearman’s rank correlation, we explored whether measures of unadjusted serum concentrations were associated with symptom improvement and the intensity of side effects during Phase I and II.
Description of measures of response outcome
Response status signifies the classification of patients as “responder” or “non-responder” if MADRS reduction of ≥50% or <50% from baseline was reached, respectively. For remission status, patients are classified as “remitter” if they achieved a MADRS total score of 10 or less; otherwise, they are classified as “non-remitter”. The percentage of symptom improvement was calculated by subtracting the total MADRS score from the baseline MADRS score and then dividing by the baseline MADRS score for each of the eight time points. These measures of response were selected, since continuous measures, such as percentage symptom improvement, capture more information and have higher power, whereas dichotomous measures, such as response status, has a particular clinical relevance since it is associated with MDD prognosis.
Post-hoc mediation analyses […]
strength of the association between the CYP2C19 or CYP2D6 metabolizer groups (predictor variable) and measures of treatment response or side effect (outcome variable) must be attenuated or rendered non- […]
mediation, respectively.1,2 R package “Mediation”3 and “lavaan”4 was used for continuous and binary variables, respectively, to perform nonparametric bootstrap analyses with 5000 iterations to calculate the estimate of the […]
1Baron RM, Kenny DA. The moderator–mediator variable distinction in social psychological research: Conceptual, strategic, and statistical considerations.
2MacKinnon DP, Lockwood CM, Hoffman JM, West SG, Sheets V. A Comparison of Methods to Test Mediation and Other Intervening Variable Effects.
3Tingley D, Yamamoto T, Hirose K, Keele L, Imai K, Trinh M et al. mediation: Causal Mediation Analysis. […]
project.org/package=mediation (accessed 7 Apr2021).
4Savalei V, Rosseel Y. Computational Options for Standard Errors and Test Statistics with Incomplete Normal and Nonnormal

[3] = tested on: patients with MDD; experiment: Toronto side effects scale (TSES), treatment-related side effects; type: in vivo, human; conditions: Week 16
Description: The Toronto side effects scale (TSES), administered on Weeks 2, 4, 10, 12, and 16, is a clinical instrument designed to assess the frequency and severity of treatment-related side effects on 5-point Likert scales. The “intensity” score is derived by multiplying the frequency and severity of each side effect. The items assessed can be broadly categorized into the central nervous system (CNS), gastrointestinal (GI), and sexual side effects, as well as weight gain (Table S1)[28]. The primary outcomes for side effects were both dichotomous and continuous: (1) absence or presence of side effects within the four categories on the last visit of Phases I and II and (2) the intensity of each category of side effect across visits during each Phase.
as §2, §3

[4] = tested on: CYP2D6; conditions: cited from earlier work
[5] = Week 10, ESC+ARI arm, dose-adjusted
[6] = Week 16, ESC+ARI arm, dose-adjusted
[7] = vs NM, Phase II, by treatment arm

## O=C1CCc2ccc(OCCCCN3CCN(c4cccc(Cl)c4Cl)CC3)cc2N1 [ARI, Aripiprazole]
[1]; [5]
  B, ARI concentrations in serum, CYP2D6 IM+PM: -2.48
[1]; [6]
  B, ARI concentrations in serum, CYP2D6 IM+PM: 1.54

## O=c1ccc2ccc(OCCCCN3CCN(c4cccc(Cl)c4Cl)CC3)cc2[nH]1 [DHA, dehydroaripiprazole]
[1]; Week 10, ESC + ARI
  lower DHA, CYP2D6 IM + PMs relative to NMs: 17.4%
[1]; [5]
  B, DHA concentrations in serum, CYP2D6 IM+PM: -0.99
[1]; [6]
  B, DHA concentrations in serum, CYP2D6 IM+PM: -0.47

## CN(C)CCC[C@@]1(c2ccc(F)cc2)OCc2cc(C#N)ccc21 [ESC, Escitalopram]
[1]; Week 2 (Phase I)
  higher mean ESCadj concentrations, CYP2C19 IM + PMs compared to NMs: 42.9%
  B, ESCadj concentrations in serum, CYP2C19 RM+UM: -0.05
  B, ESCadj concentrations in serum, CYP2D6 IM+PM: 0.31
[1]; Week 10, ESC + ARI
  difference in ESCadj concentrations between CYP2C19 NMs and IM + PMs: 39.6%
[1]; Week 10, ESC-Only
  higher levels of ESCadj in serum, CYP2D6 IM + PMs compared to NMs: 58.9%
[1]; Week 16, ESC + ARI
  difference in ESCadj concentrations between CYP2C19 NMs and IM + PMs: 58.2%
[1]; Week 16, ESC-Only
  higher levels of ESCadj in serum, CYP2D6 IM + PMs compared to NMs: 59.2%
[1]; Week 16, ARI coadministration
  ESC levels in CYP2D6 IM+PMs, ESC+ARI compared to ESC-Only: lower
[1]; Weeks 10 and 16, ARI coadministration
  ESCadj serum levels in CYP2D6 NMs, ESC + ARI compared to ESC-Only: significantly higher
[1]; Week 2 (Phase I), linear regression, dose-adjusted
  B, ESCadj concentrations in serum, CYP2C19 IM+PM: 0.59
[1]; Week 10, ESC+ARI arm
  B, ESCadj concentrations in serum, CYP2C19 IM+PM: 0.69
  B, ESCadj concentrations in serum, CYP2C19 RM+UM: 0.01
  B, ESCadj concentrations in serum, CYP2D6 IM+PM: -0.37
[1]; Week 10, ESC-Only arm
  B, ESCadj concentrations in serum, CYP2C19 IM+PM: 0.65
  B, ESCadj concentrations in serum, CYP2C19 RM+UM: 0.14
  B, ESCadj concentrations in serum, CYP2D6 IM+PM: 0.71 and 0.65
[1]; Week 16, ESC+ARI arm
  B, ESCadj concentrations in serum, CYP2C19 IM+PM: 0.77
  B, ESCadj concentrations in serum, CYP2C19 RM+UM: 0.17
  B, ESCadj concentrations in serum, CYP2D6 IM+PM: -0.32
[1]; Week 16, ESC-Only arm
  B, ESCadj concentrations in serum, CYP2C19 IM+PM: 0.66
  B, ESCadj concentrations in serum, CYP2C19 RM+UM: -0.10
[2]; Phase I (Weeks 0–8)
  Estimate for Week, percentage symptom improvement (MADRS), mixed effects model: 4.14
[2]; Phase II (Weeks 8–16), by treatment arm
  Estimate for Week, percentage symptom improvement (MADRS), mixed effects model: 1.47
[2]; Phase II
  share of the effect of CYP2C19 IM+PM phenotype on symptom improvement mediated by ESCadj serum concentrations: 45%
[2]; Phase II, listed as ESC-Only
  share of the effect of CYP2C19 IM+PM phenotype on symptom improvement mediated by ESCadj serum concentrations: about 45%
[2]
  cumulative difference in symptom improvement from baseline between CYP2C19 NMs and IMs: 11.5%
[2]; listed as ESC-Only
  cumulative difference in symptom improvement from baseline between CYP2C19 NMs and IMs: 11.52%
[2]; end of Phase I (Week 8), MADRS reduction ≥50% from baseline, 83/178
  overall response rate: 46.62%
[2]; end of Phase II (Week 16), responders continued ESC, non-responders augmented with ARI, 122/178
  overall response rate: 68.54%
[2]; vs NM, Phase I
  Estimate for CYP2C19 IM+PM*Week, percentage symptom improvement (MADRS), mixed effects model: -1.48
  Estimate for CYP2C19 IM+PM, percentage symptom improvement (MADRS), mixed effects model: 3.27
  Estimate for CYP2C19 RM+UM*Week, percentage symptom improvement (MADRS), mixed effects model: -0.73
  Estimate for CYP2C19 RM+UM, percentage symptom improvement (MADRS), mixed effects model: 3.74
  Estimate for CYP2D6 IM+PM*Week, percentage symptom improvement (MADRS), mixed effects model: 0.31
  Estimate for CYP2D6 IM+PM, percentage symptom improvement (MADRS), mixed effects model: 3.13
[2]; [7]
  Estimate for CYP2C19 IM+PM, percentage symptom improvement (MADRS), mixed effects model: 26.15
  Estimate for CYP2C19 RM+UM*Week, percentage symptom improvement (MADRS), mixed effects model: -1.04
  Estimate for CYP2C19 RM+UM, percentage symptom improvement (MADRS), mixed effects model: 14.10
  Estimate for CYP2D6 IM+PM*Week, percentage symptom improvement (MADRS), mixed effects model: -0.41
  Estimate for CYP2D6 IM+PM, percentage symptom improvement (MADRS), mixed effects model: 1.19
[2]; vs NM, Phase II, by treatment arm, listed as ESC-Only
  Estimate (B) for CYP2C19 IM+PM*Week, average percentage change in MADRS from baseline, mixed effects model: -2.34
[2]; with every two-week assessment, Phase II, simple effects analysis
  average percentage change in MADRS from baseline lower in CYP2C19 IMs than in NMs: 2.54%
[3]
  odds of reporting a CNS side effect, CYP2D6 NMs compared to IM + PMs (factor): 7.69
  odds of reporting decreased sleepiness, CYP2D6 NMs compared to IM + PMs: 25.53
[3]; listed as ESC-Only
  odds of reporting sweating, CYP2D6 NMs compared to IM + PMs: 29.21
[4]
  inhibition of CYP2D6 in vitro: weak inhibitors

## CNCCC[C@@]1(c2ccc(F)cc2)OCc2cc(C#N)ccc21 [S-DCT, S-desmethylcitalopram]
[1]; Week 2 (Phase I)
  B, S-DCTadj concentrations in serum, CYP2C19 IM+PM: -0.04
  B, S-DCTadj concentrations in serum, CYP2C19 RM+UM: 0.04
  B, S-DCTadj concentrations in serum, CYP2D6 IM+PM: -0.08
[1]; Week 10, ESC+ARI arm
  B, S-DCTadj concentrations in serum, CYP2C19 IM+PM: -0.02
  B, S-DCTadj concentrations in serum, CYP2C19 RM+UM: 0.14
  B, S-DCTadj concentrations in serum, CYP2D6 IM+PM: -0.11
[1]; Week 10, ESC-Only arm
  B, S-DCTadj concentrations in serum, CYP2C19 IM+PM: -0.12
  B, S-DCTadj concentrations in serum, CYP2C19 RM+UM: 0.02
  B, S-DCTadj concentrations in serum, CYP2D6 IM+PM: -0.11
[1]; Week 16, ESC+ARI arm
  B, S-DCTadj concentrations in serum, CYP2C19 IM+PM: -0.12
  B, S-DCTadj concentrations in serum, CYP2C19 RM+UM: 0.08
  B, S-DCTadj concentrations in serum, CYP2D6 IM+PM: -0.12
[1]; Week 16, ESC-Only arm
  B, S-DCTadj concentrations in serum, CYP2C19 IM+PM: -0.09
  B, S-DCTadj concentrations in serum, CYP2C19 RM+UM: 0.07
  B, S-DCTadj concentrations in serum, CYP2D6 IM+PM: -0.12
[4]
  inhibition of CYP2D6 in vitro: weak inhibitors
